# Measurements: ChEMBL document CHEMBL6134788, “Development of naphthalimide hydrazide derivatives as potent antibacterial agents against carbapenem-resistant A. baumannii” (RSC Med Chem, 2024)
# Key:
# Acinetobacter baumannii [1] = experiment: Antibacterial activity against carbapenem-resistant Acinetobacter baumannii BAA 1605 assessed as inhibition of bacterial growth incubated for 16 to 18 hrs by CLSI protocol based method; assay type: functional; conditions: time 16-18 hrs
# [2] = Cytotoxicity against African green monkey Vero cells assessed as reduction in cell viability incubated for 72 hrs by MTT assay; assay type: toxicity, cell-based; conditions: chlorocebus sabaeus
# [3] = Selectivity index, ratio of CC50 for cytotoxicity against African green monkey VERO cells to MIC for antibacterial activity against carbapenem-resistant Acinetobacter baumannii BAA 1605 assessed as inhibition of bacterial growth; assay type: toxicity, cell-based; conditions: read-out: Selectivity Index
# Acinetobacter baumannii [4] = experiment: Antibacterial activity against Acinetobacter baumannii ATCC 17978 assessed as inhibition of bacterial growth incubated for 16 to 18 hrs by CLSI protocol based method; assay type: functional; conditions: time 16-18 hrs, read-out: MIC100
# Acinetobacter baumannii [5] = experiment: Antibacterial activity against multi-drug resistant Acinetobacter baumannii clinical isolate 3 assessed as inhibition of bacterial growth incubated for 16 to 18 hrs by CLSI protocol based method; assay type: functional; conditions: time 16-18 hrs, read-out: MIC100
# Acinetobacter baumannii [6] = experiment: Antibacterial activity against multi-drug resistant Acinetobacter baumannii clinical isolate 8 assessed as inhibition of bacterial growth incubated for 16 to 18 hrs by CLSI protocol based method; assay type: functional; conditions: time 16-18 hrs, read-out: MIC100
# Acinetobacter baumannii [7] = experiment: Antibacterial activity against multi-drug resistant Acinetobacter baumannii BC-5 assessed as inhibition of bacterial growth incubated for 16 to 18 hrs by CLSI protocol based method; assay type: functional; conditions: time 16-18 hrs, read-out: MIC100
# Acinetobacter baumannii [8] = experiment: Antibacterial activity against multi-drug resistant Acinetobacter baumannii 5-109 assessed as inhibition of bacterial growth incubated for 16 to 18 hrs by CLSI protocol based method; assay type: functional; conditions: time 16-18 hrs, read-out: MIC100
# Acinetobacter baumannii [9] = experiment: Antibacterial activity against multi-drug resistant Acinetobacter baumannii H72721 assessed as inhibition of bacterial growth incubated for 16 to 18 hrs by CLSI protocol based method; assay type: functional; conditions: time 16-18 hrs, read-out: MIC100
# Acinetobacter baumannii [10] = experiment: Antibacterial activity against multi-drug resistant Acinetobacter baumannii Naval-81 assessed as inhibition of bacterial growth incubated for 16 to 18 hrs by CLSI protocol based method; assay type: functional; conditions: time 16-18 hrs, read-out: MIC100
# Acinetobacter baumannii [11] = experiment: Antibacterial activity against multi-drug resistant Acinetobacter baumannii clinical isolate 12 assessed as inhibition of bacterial growth incubated for 16 to 18 hrs by CLSI protocol based method; assay type: functional; conditions: time 16-18 hrs, read-out: MIC100
# Acinetobacter baumannii [12] = experiment: Antibacterial activity against multi-drug resistant Acinetobacter baumannii clinical isolate 10 assessed as inhibition of bacterial growth incubated for 16 to 18 hrs by CLSI protocol based method; assay type: functional; conditions: time 16-18 hrs, read-out: MIC100
# Acinetobacter baumannii [13] = experiment: Antibacterial activity against multi-drug resistant Acinetobacter baumannii 5-032 assessed as inhibition of bacterial growth incubated for 16 to 18 hrs by CLSI protocol based method; assay type: functional; conditions: time 16-18 hrs, read-out: MIC100
# Klebsiella pneumoniae = experiment: Antibacterial activity against Klebsiella pneumoniae BAA 1705 assessed as inhibition of bacterial growth incubated for 16 to 18 hrs by CLSI protocol based method; assay type: functional; conditions: time 16-18 hrs, read-out: MIC100
# Acinetobacter baumannii [14] = experiment: Antibacterial activity against multi-drug resistant Acinetobacter baumannii Naval-18 assessed as inhibition of bacterial growth incubated for 16 to 18 hrs by CLSI protocol based method; assay type: functional; conditions: time 16-18 hrs, read-out: MIC100
# Acinetobacter baumannii [15] = experiment: Antibacterial activity against multi-drug resistant Acinetobacter baumannii 5-189 assessed as inhibition of bacterial growth incubated for 16 to 18 hrs by CLSI protocol based method; assay type: functional; conditions: time 16-18 hrs, read-out: MIC100
# Acinetobacter baumannii [16] = experiment: Antibacterial activity against multi-drug resistant Acinetobacter baumannii Naval-17 assessed as inhibition of bacterial growth incubated for 16 to 18 hrs by CLSI protocol based method; assay type: functional; conditions: time 16-18 hrs, read-out: MIC100
# Acinetobacter baumannii [17] = experiment: Antibacterial activity against multi-drug resistant Acinetobacter baumannii clinical isolate 1 assessed as inhibition of bacterial growth incubated for 16 to 18 hrs by CLSI protocol based method; assay type: functional; conditions: time 16-18 hrs, read-out: MIC100
# Acinetobacter baumannii [18] = experiment: Antibacterial activity against multi-drug resistant Acinetobacter baumannii clinical isolate 2 assessed as inhibition of bacterial growth incubated for 16 to 18 hrs by CLSI protocol based method; assay type: functional; conditions: time 16-18 hrs, read-out: MIC100
# Acinetobacter baumannii [19] = experiment: Antibacterial activity against multi-drug resistant Acinetobacter baumannii clinical isolate 11 assessed as inhibition of bacterial growth incubated for 16 to 18 hrs by CLSI protocol based method; assay type: functional; conditions: time 16-18 hrs, read-out: MIC100
# Staphylococcus aureus [20] = experiment: Antibacterial activity against Staphylococcus aureus ATCC 29213 assessed as inhibition of bacterial growth incubated for 16 to 18 hrs by CLSI protocol based method; assay type: functional; conditions: time 16-18 hrs, read-out: MIC100
# Acinetobacter baumannii [21] = experiment: Antibacterial activity against multi-drug resistant Acinetobacter baumannii clinical isolate 6 assessed as inhibition of bacterial growth incubated for 16 to 18 hrs by CLSI protocol based method; assay type: functional; conditions: time 16-18 hrs, read-out: MIC100
# Acinetobacter baumannii [22] = experiment: Antibacterial activity against multi-drug resistant Acinetobacter baumannii clinical isolate 5 assessed as inhibition of bacterial growth incubated for 16 to 18 hrs by CLSI protocol based method; assay type: functional; conditions: time 16-18 hrs, read-out: MIC100
# Acinetobacter baumannii [23] = experiment: Antibacterial activity against multi-drug resistant Acinetobacter baumannii 5-143 assessed as inhibition of bacterial growth incubated for 16 to 18 hrs by CLSI protocol based method; assay type: functional; conditions: time 16-18 hrs, read-out: MIC100
# Acinetobacter baumannii [24] = experiment: Antibacterial activity against multi-drug resistant Acinetobacter baumannii NR-17777 assessed as inhibition of bacterial growth incubated for 16 to 18 hrs by CLSI protocol based method; assay type: functional; conditions: time 16-18 hrs, read-out: MIC100
# Acinetobacter baumannii [25] = experiment: Antibacterial activity against multi-drug resistant Acinetobacter baumannii WL-487 assessed as inhibition of bacterial growth incubated for 16 to 18 hrs by CLSI protocol based method; assay type: functional; conditions: time 16-18 hrs, read-out: MIC100
# Escherichia coli = experiment: Antibacterial activity against Escherichia coli ATCC 25922 assessed as inhibition of bacterial growth incubated for 16 to 18 hrs by CLSI protocol based method; assay type: functional; conditions: time 16-18 hrs, read-out: MIC100
# Acinetobacter baumannii [26] = experiment: Antibacterial activity against multi-drug resistant Acinetobacter baumannii clinical isolate 4 assessed as inhibition of bacterial growth incubated for 16 to 18 hrs by CLSI protocol based method; assay type: functional; conditions: time 16-18 hrs, read-out: MIC100
# Acinetobacter baumannii [27] = experiment: Antibacterial activity against multi-drug resistant Acinetobacter baumannii clinical isolate 7 assessed as inhibition of bacterial growth incubated for 16 to 18 hrs by CLSI protocol based method; assay type: functional; conditions: time 16-18 hrs, read-out: MIC100
# Acinetobacter baumannii [28] = experiment: Antibacterial activity against multi-drug resistant Acinetobacter baumannii clinical isolate 9 assessed as inhibition of bacterial growth incubated for 16 to 18 hrs by CLSI protocol based method; assay type: functional; conditions: time 16-18 hrs, read-out: MIC100
# Acinetobacter baumannii [29] = experiment: Antibacterial activity against multi-drug resistant Acinetobacter baumannii WL-136 assessed as inhibition of bacterial growth incubated for 16 to 18 hrs by CLSI protocol based method; assay type: functional; conditions: time 16-18 hrs, read-out: MIC100
# Pseudomonas aeruginosa = experiment: Antibacterial activity against Pseudomonas aeruginosa ATCC 27853 assessed as inhibition of bacterial growth incubated for 16 to 18 hrs by CLSI protocol based method; assay type: functional; conditions: time 16-18 hrs, read-out: MIC100
# Staphylococcus aureus [30] = experiment: Antibacterial activity against Staphylococcus aureus; assay type: functional
# Acinetobacter baumannii [31] = experiment: Antibacterial activity against Acinetobacter baumannii assessed as inhibition of bacterial growth by CLSI protocol based assay; assay type: functional
# Acinetobacter baumannii [32] = experiment: Antibacterial activity against Acinetobacter baumannii assessed as inhibition of bacterial growth by twofold serial dilution method; assay type: functional
# Acinetobacter baumannii [33] = experiment: Antibacterial activity against Acinetobacter baumannii; assay type: functional
structure (smiles),measurement,setting,value
COc1cccc2c1C(=O)c1c(O)c3c(c(O)c1C2=O)C[C@@](O)(C(=O)CO)C[C@@H]3O[C@H]1C[C@H](N)[C@H](O)[C@H](C)O1 [DOXORUBICIN],MIC,Acinetobacter baumannii [1]; read-out: MIC,> 64 µg/mL
same,CC50 at 72 h,[2],< 10 µg/mL
same,selectivity ratio,[3],< 1
O=C(CCN1C(=O)c2cccc3cccc(c23)C1=O)NNc1ccc(Cl)cc1,MIC,Acinetobacter baumannii [4],1 µg/mL
same,MIC,Acinetobacter baumannii [5],0.5 µg/mL
same,MIC,Acinetobacter baumannii [6],1 µg/mL
same,MIC,Acinetobacter baumannii [7],1 µg/mL
same,MIC,Acinetobacter baumannii [8],2 µg/mL
same,MIC,Acinetobacter baumannii [9],1 µg/mL
same,MIC,Acinetobacter baumannii [10],1 µg/mL
same,MIC,Acinetobacter baumannii [11],1 µg/mL
same,MIC,Acinetobacter baumannii [12],2 µg/mL
same,MIC,Acinetobacter baumannii [13],2 µg/mL
same,MIC,Klebsiella pneumoniae,> 64 µg/mL
same,MIC,Acinetobacter baumannii [14],1 µg/mL
same,MIC,Acinetobacter baumannii [15],2 µg/mL
same,MIC,Acinetobacter baumannii [16],1 µg/mL
same,MIC,Acinetobacter baumannii [1]; read-out: MIC100,0.5 µg/mL
same,MIC,Acinetobacter baumannii [17],1 µg/mL
same,MIC,Acinetobacter baumannii [18],1 µg/mL
same,MIC,Acinetobacter baumannii [19],2 µg/mL
same,MIC,Staphylococcus aureus [20],> 64 µg/mL
same,MIC,Acinetobacter baumannii [21],2 µg/mL
same,MIC,Acinetobacter baumannii [22],2 µg/mL
same,MIC,Acinetobacter baumannii [23],2 µg/mL
same,MIC,Acinetobacter baumannii [24],2 µg/mL
same,MIC,Acinetobacter baumannii [25],1 µg/mL
same,MIC,Escherichia coli,> 64 µg/mL
same,CC50 at 72 h,[2],> 100 µg/mL
same,MIC,Acinetobacter baumannii [26],1 µg/mL
same,MIC,Acinetobacter baumannii [27],1 µg/mL
same,MIC,Acinetobacter baumannii [28],1 µg/mL
same,MIC,Acinetobacter baumannii [29],1 µg/mL
same,selectivity ratio,[3],> 200
same,MIC,Pseudomonas aeruginosa,> 64 µg/mL
Cc1ccc2cc(C(=O)N3CCN(CCN4C(=O)c5cccc6cccc(c56)C4=O)CC3)c(=O)oc2c1,MIC,Staphylococcus aureus [30],0.5 µg/mL
CN1C(=O)/C(=C/NNc2ccc(C#N)cc2)SC1=S,MIC,Acinetobacter baumannii [31],16 µg/mL
CCCCCCCCCCN1CCN(c2ccc3c4c(cccc24)C(=O)N(CC(O)Cn2c([N+](=O)[O-])cnc2C)C3=O)CC1 (centres undefined),MIC,Acinetobacter baumannii [32],13 µM
N#Cc1ccc(NNC(=O)c2ccc(Br)cc2)cc1,MIC,Acinetobacter baumannii [33],0.25 µg/mL
